Legend:
DMS-153 = assay: cells; assay type: functional, cell-based; details: Homo sapiens
Description: SANGER: Inhibition of human DMS-153 cell growth in a cell viability assay.

EB2 = assay: cells; assay type: functional, cell-based; details: Homo sapiens;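 note: growth inhibition of EB2 cells, read out with a cell viability assay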
Description: SANGER: Inhibition of human EB2 cell growth in a cell viability assay.

EVSA-T = assay: cells; assay type: functional, cell-based, Homo sapiens; details: Homo sapiens, EVSA-T;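 note: growth inhibition of EVSA-T cells, read out with a cell viability assay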
Description: SANGER: Inhibition of human EVSA-T cell growth in a cell viability assay.

EW-22 = assay: cells; assay type: functional, cell-based; details: Homo sapiens;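 note: growth inhibition of the EW-22 cell line, measured with a cell viability readout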
Description: SANGER: Inhibition of human EW-22 cell growth in a cell viability assay.

IST-SL2 = assay: cells; assay type: functional, cell-based; details: Homo sapiens;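 note: growth inhibition of human IST-SL2 cells, read out by a cell viability assay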
Description: SANGER: Inhibition of human IST-SL2 cell growth in a cell viability assay.

LC-1F = assay: cells; assay type: functional, cell-based; details: Homo sapiens;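 note: growth inhibition of human LC-1F cells, read out with a cell viability assay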
Description: SANGER: Inhibition of human LC-1F cell growth in a cell viability assay.

LC4-1 = assay: cells; assay type: functional, cell-based; details: Homo sapiens;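 note: growth inhibition of LC4-1 cells, read out with a cell viability assay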
Description: SANGER: Inhibition of human LC4-1 cell growth in a cell viability assay.

LP-1 = assay: cells; assay type: functional, cell-based; details: Homo sapiens;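 note: growth inhibition of human LP-1 cells, with the read-out taken from a cell viability assay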
Description: SANGER: Inhibition of human LP-1 cell growth in a cell viability assay.

MC-CAR = assay: cells; assay type: functional, cell-based; details: Homo sapiens;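 note: growth inhibition of the human MC-CAR cell line, read out by a cell viability assay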
Description: SANGER: Inhibition of human MC-CAR cell growth in a cell viability assay.

MHH-CALL-2 = assay: cells; assay type: functional, cell-based; details: Homo sapiens;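 note: growth inhibition of the cell line, read out in a cell viability assay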
Description: SANGER: Inhibition of human MHH-CALL-2 cell growth in a cell viability assay.

MONO-MAC-6 = assay: cells; assay type: functional, cell-based; details: Homo sapiens;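 note: cell viability assay measuring growth inhibition of human MONO-MAC-6 cells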
Description: SANGER: Inhibition of human MONO-MAC-6 cell growth in a cell viability assay.

NALM-6 = assay: cells; assay type: functional, cell-based; details: Homo sapiens;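 note: growth inhibition of NALM-6 cells, read out with a cell viability assay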
Description: SANGER: Inhibition of human NALM-6 cell growth in a cell viability assay.

NB1 = assay: cells; assay type: functional, cell-based; details: Homo sapiens;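 note: reduction of NB1 cell proliferation, read out with a viability assay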
Description: SANGER: Inhibition of human NB1 cell growth in a cell viability assay.

NCCIT = assay: SANGER: Inhibition of human NCCIT cell growth in a cell viability assay.; assay type: functional, cell-based
NCI-H1417 = assay: cells; assay type: functional, cell-based; details: Homo sapiens;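 note: human NCI-H1417 cells, growth inhibition determined with a cell viability readout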
Description: SANGER: Inhibition of human NCI-H1417 cell growth in a cell viability assay.

NCI-H1522 = assay: cells; assay type: functional, cell-based; details: Homo sapiens;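 note: growth inhibition of NCI-H1522 cells, read out with a cell viability assay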
Description: SANGER: Inhibition of human NCI-H1522 cell growth in a cell viability assay.

NCI-H1882 = assay: cells; assay type: functional, cell-based; details: Homo sapiens;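 note: growth inhibition of the cell line, determined with a viability assay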
Description: SANGER: Inhibition of human NCI-H1882 cell growth in a cell viability assay.

NCI-H2171 = assay: cells; assay type: functional, cell-based; details: Homo sapiens;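 note: growth inhibition of human NCI-H2171 cells, read out by a cell viability assay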
Description: SANGER: Inhibition of human NCI-H2171 cell growth in a cell viability assay.

NCI-H2196 = assay: cells; assay type: functional, cell-based; details: Homo sapiens;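 note: cell viability assay used as the readout of growth inhibition in NCI-H2196 cells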
Description: SANGER: Inhibition of human NCI-H2196 cell growth in a cell viability assay.

NCI-H64 = assay: cells; assay type: functional, cell-based; details: Homo sapiens;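 note: growth inhibition of NCI-H64 cells, read out with a cell viability assay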
Description: SANGER: Inhibition of human NCI-H64 cell growth in a cell viability assay.

NCI-H719 = assay: cells; assay type: functional, cell-based; details: Homo sapiens;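 note: growth inhibition of the cultured cell line, read out with a viability assay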
Description: SANGER: Inhibition of human NCI-H719 cell growth in a cell viability assay.

NCI-H748 = assay: cells; assay type: functional, cell-based; details: Homo sapiens;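 note: growth inhibition of NCI-H748 cells, measured by a cell viability assay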
Description: SANGER: Inhibition of human NCI-H748 cell growth in a cell viability assay.

SNU-16 = assay: cells; assay type: functional, cell-based; details: Homo sapiens;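 note: growth inhibition of human SNU-16 cells, determined with a cell viability readout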
Description: SANGER: Inhibition of human NCI-SNU-16 cell growth in a cell viability assay.

P31-FUJ = assay: cells; assay type: functional, cell-based; details: Homo sapiens;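 note: growth inhibition of P31-FUJ cells, read out with a viability assay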
Description: SANGER: Inhibition of human P31-FUJ cell growth in a cell viability assay.

PF-382 = assay: cells; assay type: functional, cell-based; details: Homo sapiens
Description: SANGER: Inhibition of human PF-382 cell growth in a cell viability assay.

RL = assay: cells; assay type: functional, cell-based; details: Homo sapiens
Description: SANGER: Inhibition of human RL cell growth in a cell viability assay.

RL95-2 = assay: cells; assay type: functional, cell-based; details: Homo sapiens;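 note: RL95-2 growth inhibition determined through a cell viability readout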
Description: SANGER: Inhibition of human RL95-2 cell growth in a cell viability assay.

RPMI-6666 = assay: cells; assay type: functional, cell-based; details: Homo sapiens
Description: SANGER: Inhibition of human RPMI-6666 cell growth in a cell viability assay.

RPMI 8402 = assay: SANGER: Inhibition of human RPMI-8402 cell growth in a cell viability assay.; assay type: functional, cell-based
SCLC-21H = assay: cells; assay type: functional, cell-based; details: Homo sapiens;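 note: growth inhibition of cultured human SCLC-21H cells, read out with a cell viability assay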
Description: SANGER: Inhibition of human SCLC-21H cell growth in a cell viability assay.

SIG-M5 = assay: cells; assay type: functional, cell-based; details: Homo sapiens;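 note: cell viability assay read-out, measuring how strongly growth of cultured human SIG-M5 cells is inhibited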
Description: SANGER: Inhibition of human SIG-M5 cell growth in a cell viability assay.

SIMA = assay: cells; assay type: functional, cell-based, Homo sapiens; details: Homo sapiens, SIMA;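 note: growth inhibition of SIMA cells, measured with a cell viability readout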
Description: SANGER: Inhibition of human SIMA cell growth in a cell viability assay.

SK-MM-2 = assay: cells; assay type: functional, cell-based; details: Homo sapiens;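 note: growth inhibition of human SK-MM-2 cells, read out with a cell viability assay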
Description: SANGER: Inhibition of human SK-MM-2 cell growth in a cell viability assay.

TALL-1 = assay: cells; assay type: functional, cell-based; details: Homo sapiens;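 note: growth inhibition of cultured human TALL-1 cells, read out by a cell viability assay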
Description: SANGER: Inhibition of human TALL-1 cell growth in a cell viability assay.

BC-3 = assay: cells; assay type: functional, cell-based; details: Homo sapiens;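 note: cell viability assay measuring growth inhibition of human BC-3 cells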
Description: SANGER: Inhibition of human BC-3 cell growth in a cell viability assay.

BL-41 = assay: cells; assay type: functional, cell-based; details: Homo sapiens;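 note: growth inhibition of human BL-41 cells, read out with a cell viability assay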
Description: SANGER: Inhibition of human BL-41 cell growth in a cell viability assay.

BL-70 = assay: SANGER: Inhibition of human BL-70 cell growth in a cell viability assay.; assay type: functional, cell-based
CAL-148 = assay: cells; assay type: functional, cell-based; details: Homo sapiens
Description: SANGER: Inhibition of human CAL-148 cell growth in a cell viability assay.

TE-441-T = assay: cells; assay type: functional, cell-based; details: Homo sapiens
Description: SANGER: Inhibition of human TE-441-T cell growth in a cell viability assay.

U-698-M = assay: cells; assay type: functional, cell-based; details: Homo sapiens
Description: SANGER: Inhibition of human U-698-M cell growth in a cell viability assay.

UACC-812 = assay: cells; assay type: functional, cell-based; details: Homo sapiens
Description: SANGER: Inhibition of human UACC-812 cell growth in a cell viability assay.

WSU-NHL = assay: cells; assay type: functional, cell-based; details: Homo sapiens;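 note: growth inhibition of human WSU-NHL cells, read out with a cell viability assay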
Description: SANGER: Inhibition of human WSU-NHL cell growth in a cell viability assay.

CESS = assay: SANGER: Inhibition of human CESS cell growth in a cell viability assay.; assay type: functional, cell-based
CHP-126 = assay: cells; assay type: functional, cell-based; details: Homo sapiens
Description: SANGER: Inhibition of human CHP-126 cell growth in a cell viability assay.

CMK = assay: cells; assay type: functional, cell-based; details: Homo sapiens;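 note: growth inhibition of CMK cells, read out as cell viability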
Description: SANGER: Inhibition of human CMK cell growth in a cell viability assay.

Measured: IC50

C=C1C(=O)O[C@@H]2C3O[C@]3(C)CC/C=C(\C)CC[C@@H]12 (stereo not given in full)
0.645 µM: NCI-H2196
> 5 µM: all other assays above

CC1=C2C[C@H]3[C@@H](CC=C4C[C@@H](O)CC[C@@]43C)[C@@H]2CC[C@]12O[C@@H]1C[C@H](C)CN[C@H]1[C@H]2C [CYCLOPAMINE]
15.9 µM: RPMI 8402
not listed: EW-22
> 16 µM: all other assays above

CS(=O)(=O)CCNCc1ccc(-c2ccc3ncnc(Nc4ccc(OCc5cccc(F)c5)c(Cl)c4)c3c2)o1 [LAPATINIB]
1.38 µM: LC-1F
not listed: EW-22
> 2 µM: all other assays above

CCc1nc(N)nc(N)c1-c1ccc(Cl)cc1 [PYRIMETHAMINE]
6.93 µM: NCCIT
8.12 µM: RPMI 8402
19.5 µM: BC-3
5.71 µM: CESS
2.46 µM: CMK
16.3 µM: MONO-MAC-6
19.8 µM: NALM-6
11.4 µM: IST-SL2
15.7 µM: RL95-2
7.98 µM: SIG-M5
14.6 µM: PF-382 | RPMI-6666 | BL-70
> 20 µM: all other assays above

O=C(/C=C/c1ccccc1)NC(NC(=S)Nc1cccc2cccnc12)C(Cl)(Cl)Cl (stereo not given) [SALUBRINAL]
11.6 µM: NCCIT
13.7 µM: CMK
14.8 µM: BC-3
10.5 µM: MONO-MAC-6
12.9 µM: EVSA-T
11.8 µM: IST-SL2
13.1 µM: NALM-6
9.78 µM: BL-41
3.37 µM: LP-1
11.7 µM: CESS
not listed: EW-22
> 16 µM: all other assays above

Cc1cc(Nc2cc(N3CCN(C)CC3)nc(Sc3ccc(NC(=O)C4CC4)cc3)n2)n[nH]1 [TOZASERTIB]
0.636 µM: SNU-16
0.0788 µM: MONO-MAC-6
0.72 µM: IST-SL2
0.0255 µM: NALM-6
0.104 µM: BL-41
0.39 µM: BL-70
0.313 µM: CESS
1.97 µM: SCLC-21H
0.406 µM: RL95-2
1.42 µM: CMK
0.167 µM: SIG-M5
not listed: EW-22 | UACC-812
> 2 µM: all other assays above

Source: ChEMBL document CHEMBL1201861, “Genomics of Drug Sensitity in Cancer screening data, Wellcome Trust Sanger Institute”
